ChEMBL document CHEMBL4387741, “Optimization of novel reversible Bruton's tyrosine kinase inhibitors identified using Tethering-fragment-based screens” (Bioorg Med Chem, 2019)

How the values were obtained:
[1] = target: Tyrosine-protein kinase Fer (Homo sapiens) (UniProt P16591); experiment: Inhibition of wild-type human partial length FER (S542 to T822 residues) expressed in bacterial expression system at 1 uM by Kinomescan method relative to control
[2] = target: NUAK family SNF1-like kinase 1 (Homo sapiens) (UniProt O60285); experiment: Inhibition of wild-type human partial length ARK5 (E25 to I332 residues) expressed in bacterial expression system at 1 uM by Kinomescan method relative to control
NUAK family SNF1-like kinase 1 (Homo sapiens), sequence (O60285 whole entry, the tested form may be a part): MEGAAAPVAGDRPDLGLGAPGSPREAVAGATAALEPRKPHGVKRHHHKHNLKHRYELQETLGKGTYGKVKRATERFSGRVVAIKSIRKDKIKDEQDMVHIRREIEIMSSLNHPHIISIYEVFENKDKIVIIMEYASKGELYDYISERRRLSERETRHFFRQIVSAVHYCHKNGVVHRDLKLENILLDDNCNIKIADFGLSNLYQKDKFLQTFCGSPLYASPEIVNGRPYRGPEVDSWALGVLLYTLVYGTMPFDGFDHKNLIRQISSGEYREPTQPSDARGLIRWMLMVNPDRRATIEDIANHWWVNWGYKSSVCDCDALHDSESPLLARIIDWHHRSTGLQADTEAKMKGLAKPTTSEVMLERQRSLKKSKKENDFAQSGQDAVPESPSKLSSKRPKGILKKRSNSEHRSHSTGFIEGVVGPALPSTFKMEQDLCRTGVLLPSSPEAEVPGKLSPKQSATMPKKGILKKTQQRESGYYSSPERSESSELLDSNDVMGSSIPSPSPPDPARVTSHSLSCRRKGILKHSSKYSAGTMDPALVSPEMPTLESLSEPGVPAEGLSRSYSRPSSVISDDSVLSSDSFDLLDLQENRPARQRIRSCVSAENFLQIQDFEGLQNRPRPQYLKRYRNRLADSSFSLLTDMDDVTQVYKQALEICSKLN

[3] = target: Tyrosine-protein kinase Fgr (Homo sapiens) (UniProt P09769); experiment: Inhibition of wild-type human partial length FGR (L233 to T529 residues) expressed in bacterial expression system at 1 uM by Kinomescan method relative to control
[4] = target: cGMP-dependent protein kinase 1 (Homo sapiens) (UniProt Q13976); experiment: Inhibition of wild-type human partial length PRKG1 (L339 to F686 residues) expressed in bacterial expression system at 1 uM by Kinomescan method relative to control
[5] = target: Epithelial discoidin domain-containing receptor 1 (Homo sapiens) (UniProt Q08345); experiment: Inhibition of wild-type human partial length DDR1 (R565 to V876 residues) expressed in bacterial expression system at 1 uM by Kinomescan method relative to control
Epithelial discoidin domain-containing receptor 1 (Homo sapiens), sequence (Q08345 whole entry, the tested form may be a part): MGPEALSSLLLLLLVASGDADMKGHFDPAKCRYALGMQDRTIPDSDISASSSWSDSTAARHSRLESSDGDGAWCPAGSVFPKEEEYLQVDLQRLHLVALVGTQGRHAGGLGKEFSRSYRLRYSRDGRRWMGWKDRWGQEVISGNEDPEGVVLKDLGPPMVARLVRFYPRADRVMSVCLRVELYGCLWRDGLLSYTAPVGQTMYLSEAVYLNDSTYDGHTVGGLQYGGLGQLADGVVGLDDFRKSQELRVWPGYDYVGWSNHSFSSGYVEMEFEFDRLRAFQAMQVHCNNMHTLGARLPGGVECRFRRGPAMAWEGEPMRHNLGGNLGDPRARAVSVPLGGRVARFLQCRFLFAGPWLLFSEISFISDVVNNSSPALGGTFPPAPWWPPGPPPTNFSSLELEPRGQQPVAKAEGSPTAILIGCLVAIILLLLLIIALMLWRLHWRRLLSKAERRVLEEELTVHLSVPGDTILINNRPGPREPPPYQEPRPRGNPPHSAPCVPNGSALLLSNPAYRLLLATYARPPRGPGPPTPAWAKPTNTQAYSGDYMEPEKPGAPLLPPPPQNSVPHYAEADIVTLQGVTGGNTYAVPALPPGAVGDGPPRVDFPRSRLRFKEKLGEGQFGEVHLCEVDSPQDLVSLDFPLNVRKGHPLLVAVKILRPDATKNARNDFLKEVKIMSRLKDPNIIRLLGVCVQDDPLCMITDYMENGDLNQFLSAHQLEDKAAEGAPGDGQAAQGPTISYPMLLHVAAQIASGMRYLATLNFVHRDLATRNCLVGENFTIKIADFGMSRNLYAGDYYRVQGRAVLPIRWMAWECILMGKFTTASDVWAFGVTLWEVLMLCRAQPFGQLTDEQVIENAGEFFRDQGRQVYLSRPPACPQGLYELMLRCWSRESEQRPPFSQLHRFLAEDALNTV

[6] = target: Myosin-IIIb (Homo sapiens) (UniProt Q8WXR4); experiment: Inhibition of wild-type human partial length MYO3B (M1 to D357 residues) expressed in bacterial expression system at 1 uM by Kinomescan method relative to control
[7] = target: Serine/threonine-protein kinase Nek5 (Homo sapiens) (UniProt Q6P3R8); experiment: Inhibition of wild-type human partial length NEK5 (M1 to M279 residues) expressed in bacterial expression system at 1 uM by Kinomescan method relative to control
[8] = target: Serine/threonine-protein kinase Nek3 (Homo sapiens) (UniProt P51956); experiment: Inhibition of wild-type human full length NEK3 (M1 to R506 residues) expressed in mammalian expression system at 1 uM by Kinomescan method relative to control
[9] = target: Cyclin-dependent kinase 13 (Homo sapiens) (UniProt Q14004); experiment: Inhibition of wild-type human partial length CDC2L5 (H675 to S1054 residues) expressed in mammalian expression system at 1 uM by Kinomescan method relative to control
[10] = target: Casein kinase I isoform alpha (Homo sapiens) (UniProt P48729); experiment: Inhibition of wild-type human partial length CSNK1A1 (M1 to L450 residues) expressed in mammalian expression system at 1 uM by Kinomescan method relative to control
[11] = tested on: Mast/stem cell growth factor receptor Kit (Homo sapiens), P10721 [V559D,T670I]; experiment: Inhibition of human partial length KIT V559D/T670I double mutant (Y545 to D952 residues) expressed in bacterial expression system at 1 uM by Kinomescan method relative to control
[12] = target: Tyrosine-protein kinase Blk (Homo sapiens) (UniProt P51451); experiment: Inhibition of wild-type human partial length BLK (G211 to L503 residues) expressed in bacterial expression system at 1 uM by Kinomescan method relative to control
[13] = target: Serine/threonine-protein kinase 24 (Homo sapiens) (UniProt Q9Y6E0); experiment: Inhibition of wild-type human partial length MST3 (A30 to S311 residues) expressed in bacterial expression system at 1 uM by Kinomescan method relative to control
Serine/threonine-protein kinase 24 (Homo sapiens), sequence (Q9Y6E0 whole entry, looked up, the tested form may be a part): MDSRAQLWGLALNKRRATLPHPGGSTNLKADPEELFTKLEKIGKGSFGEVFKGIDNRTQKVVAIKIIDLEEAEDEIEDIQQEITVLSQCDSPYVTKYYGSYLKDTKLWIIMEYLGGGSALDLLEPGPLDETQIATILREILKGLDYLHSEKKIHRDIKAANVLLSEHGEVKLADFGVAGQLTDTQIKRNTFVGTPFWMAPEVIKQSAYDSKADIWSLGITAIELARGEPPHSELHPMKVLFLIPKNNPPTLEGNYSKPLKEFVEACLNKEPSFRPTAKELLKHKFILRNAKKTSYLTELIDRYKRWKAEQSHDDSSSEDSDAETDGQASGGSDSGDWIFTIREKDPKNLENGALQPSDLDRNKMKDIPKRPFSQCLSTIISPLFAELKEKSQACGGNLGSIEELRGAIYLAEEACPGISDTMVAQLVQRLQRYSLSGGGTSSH

[14] = target: Inhibitor of nuclear factor kappa-B kinase subunit beta (Homo sapiens) (UniProt O14920); experiment: Inhibition of wild-type human full length IKK-beta (M1 to S756 residues) expressed in mammalian expression system at 1 uM by Kinomescan method relative to control
[15] = target: Non-receptor tyrosine-protein kinase TYK2 (Homo sapiens) (UniProt P29597); experiment: Inhibition of wild-type human partial length TYK2 JH2 pseudokinase domain (G556 to D888 residues) expressed in mammalian expression system at 10 uM by Kinomescan method relative to control
[16] = target: Dual specificity testis-specific protein kinase 1 (Homo sapiens) (UniProt Q15569); experiment: Inhibition of wild-type human full length TESK1 (R37 to S626 residues) expressed in bacterial expression system at 10 uM by Kinomescan method relative to control
[17] = target: Serine/threonine-protein kinase MARK1 (Homo sapiens) (UniProt Q9P0L2); experiment: Inhibition of wild-type human partial length MARK1 (Q30 to T341 residues) expressed in bacterial expression system at 10 uM by Kinomescan method relative to control
[18] = target: Ribosomal protein S6 kinase beta-1 (Homo sapiens) (UniProt P23443); experiment: Inhibition of wild-type human partial length S6K1 (M1 to S421 residues) expressed in mammalian expression system at 10 uM by Kinomescan method relative to control
[19] = target: Citron Rho-interacting kinase (Homo sapiens) (UniProt O14578); experiment: Inhibition of wild-type human partial length CIT (M68 to E432 residues) expressed in bacterial expression system at 10 uM by Kinomescan method relative to control
[20] = target: Serine/threonine-protein kinase DCLK2 (Homo sapiens) (UniProt Q8N568); experiment: Inhibition of wild-type human partial length DCAMKL2 (K273 to V664 residues) expressed in bacterial expression system at 10 uM by Kinomescan method relative to control
[21] = target: Cyclin-dependent kinase 11B (Homo sapiens) (UniProt P21127); experiment: Inhibition of wild-type human partial length CDC2L1 (P353 to G692 residues) expressed in bacterial expression system at 10 uM by Kinomescan method relative to control
Cyclin-dependent kinase 11B (Homo sapiens), sequence (P21127 whole entry, the tested form may be a part): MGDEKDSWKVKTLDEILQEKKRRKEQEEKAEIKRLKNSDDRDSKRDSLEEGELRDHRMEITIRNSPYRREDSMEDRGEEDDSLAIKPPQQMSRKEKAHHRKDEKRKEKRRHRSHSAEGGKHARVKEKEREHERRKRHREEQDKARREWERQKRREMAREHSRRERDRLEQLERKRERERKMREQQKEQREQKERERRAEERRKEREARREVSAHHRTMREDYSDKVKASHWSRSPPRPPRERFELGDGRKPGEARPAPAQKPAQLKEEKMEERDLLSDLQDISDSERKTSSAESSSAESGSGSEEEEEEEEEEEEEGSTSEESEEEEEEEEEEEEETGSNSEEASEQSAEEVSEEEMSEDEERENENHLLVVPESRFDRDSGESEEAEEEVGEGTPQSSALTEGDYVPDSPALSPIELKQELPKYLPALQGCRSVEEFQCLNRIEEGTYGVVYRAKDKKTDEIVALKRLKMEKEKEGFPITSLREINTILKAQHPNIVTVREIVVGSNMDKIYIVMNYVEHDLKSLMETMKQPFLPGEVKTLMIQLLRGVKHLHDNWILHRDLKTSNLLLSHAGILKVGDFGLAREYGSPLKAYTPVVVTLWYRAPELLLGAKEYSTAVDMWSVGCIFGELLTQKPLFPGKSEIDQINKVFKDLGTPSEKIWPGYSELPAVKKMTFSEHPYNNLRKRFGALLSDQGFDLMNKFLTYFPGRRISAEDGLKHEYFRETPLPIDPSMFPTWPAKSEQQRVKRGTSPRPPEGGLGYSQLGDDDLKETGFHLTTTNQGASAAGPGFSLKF

[22] = target: Tyrosine-protein kinase Mer (Homo sapiens) (UniProt Q12866); experiment: Inhibition of wild-type human partial length MERTK (R557 to L884 residues) expressed in bacterial expression system at 10 uM by Kinomescan method relative to control
[23] = target: Protein kinase C eta type (Homo sapiens) (UniProt P24723); experiment: Inhibition of wild-type human partial length PRKCH (S324 to P683 residues) expressed in bacterial expression system at 10 uM by Kinomescan method relative to control
Protein kinase C eta type (Homo sapiens), sequence (P24723 whole entry, the tested form may be a part): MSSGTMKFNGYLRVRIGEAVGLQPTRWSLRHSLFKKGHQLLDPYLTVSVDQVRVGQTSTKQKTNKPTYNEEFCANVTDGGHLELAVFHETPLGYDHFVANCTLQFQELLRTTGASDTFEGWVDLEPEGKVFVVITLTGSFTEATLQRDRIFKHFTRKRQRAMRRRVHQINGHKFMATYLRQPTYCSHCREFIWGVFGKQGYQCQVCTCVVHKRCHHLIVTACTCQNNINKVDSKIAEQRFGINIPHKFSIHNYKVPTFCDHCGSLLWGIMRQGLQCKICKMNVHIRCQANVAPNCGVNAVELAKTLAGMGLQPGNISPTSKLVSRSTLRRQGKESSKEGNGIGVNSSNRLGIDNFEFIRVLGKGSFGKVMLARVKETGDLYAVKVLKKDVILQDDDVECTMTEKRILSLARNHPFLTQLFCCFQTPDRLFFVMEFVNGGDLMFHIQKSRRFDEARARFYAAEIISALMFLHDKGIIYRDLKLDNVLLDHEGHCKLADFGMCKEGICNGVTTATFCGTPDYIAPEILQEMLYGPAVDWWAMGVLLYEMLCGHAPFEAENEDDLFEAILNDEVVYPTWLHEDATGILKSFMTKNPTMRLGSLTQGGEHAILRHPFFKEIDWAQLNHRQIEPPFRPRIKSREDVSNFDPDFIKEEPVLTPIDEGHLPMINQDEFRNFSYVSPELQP

[24] = tested on: Tyrosine-protein kinase ABL1 (Homo sapiens), P00519 [F317I]; experiment: Inhibition of human phosphorylated ABL1 F317I mutant (S229 to K512 residues) expressed in mammalian expression system at 10 uM by Kinomescan method relative to control
[25] = target: Serine/threonine-protein kinase 26 (Homo sapiens) (UniProt Q9P289); experiment: Inhibition of wild-type human full length MST4 (M1 to P416 residues) expressed in mammalian expression system at 10 uM by Kinomescan method relative to control
[26] = target: Activin receptor type-2B (Homo sapiens) (UniProt Q13705); experiment: Inhibition of wild-type human ACVR2B (H169 to D504 residues) expressed in bacterial expression system at 10 uM by Kinomescan method relative to control
Activin receptor type-2B (Homo sapiens), sequence (Q13705 whole entry, the tested form may be a part, canonical isoform): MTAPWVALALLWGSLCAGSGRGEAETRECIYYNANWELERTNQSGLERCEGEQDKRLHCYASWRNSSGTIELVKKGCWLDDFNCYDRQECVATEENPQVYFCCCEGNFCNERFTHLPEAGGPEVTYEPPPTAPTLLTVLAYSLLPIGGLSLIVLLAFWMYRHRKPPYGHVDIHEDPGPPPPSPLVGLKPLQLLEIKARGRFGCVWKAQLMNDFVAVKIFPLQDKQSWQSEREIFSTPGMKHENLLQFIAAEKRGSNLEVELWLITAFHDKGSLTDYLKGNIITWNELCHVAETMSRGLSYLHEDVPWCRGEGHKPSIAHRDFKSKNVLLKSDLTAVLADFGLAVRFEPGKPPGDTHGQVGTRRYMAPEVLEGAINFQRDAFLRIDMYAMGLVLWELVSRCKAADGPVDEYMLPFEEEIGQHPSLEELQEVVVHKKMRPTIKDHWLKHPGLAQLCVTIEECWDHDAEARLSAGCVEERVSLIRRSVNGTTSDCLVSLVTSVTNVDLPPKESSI

[27] = target: Phosphatidylinositol 4,5-bisphosphate 3-kinase catalytic subunit alpha isoform (Homo sapiens) (UniProt P42336); experiment: Inhibition of wild-type human partial length PIK3CA (R108 to N1068 residues) expressed in mammalian expression system at 10 uM by Kinomescan method relative to control

Tyrosine-protein kinase Fer (Homo sapiens), sequence (P16591 whole entry, looked up, the tested form may be a part): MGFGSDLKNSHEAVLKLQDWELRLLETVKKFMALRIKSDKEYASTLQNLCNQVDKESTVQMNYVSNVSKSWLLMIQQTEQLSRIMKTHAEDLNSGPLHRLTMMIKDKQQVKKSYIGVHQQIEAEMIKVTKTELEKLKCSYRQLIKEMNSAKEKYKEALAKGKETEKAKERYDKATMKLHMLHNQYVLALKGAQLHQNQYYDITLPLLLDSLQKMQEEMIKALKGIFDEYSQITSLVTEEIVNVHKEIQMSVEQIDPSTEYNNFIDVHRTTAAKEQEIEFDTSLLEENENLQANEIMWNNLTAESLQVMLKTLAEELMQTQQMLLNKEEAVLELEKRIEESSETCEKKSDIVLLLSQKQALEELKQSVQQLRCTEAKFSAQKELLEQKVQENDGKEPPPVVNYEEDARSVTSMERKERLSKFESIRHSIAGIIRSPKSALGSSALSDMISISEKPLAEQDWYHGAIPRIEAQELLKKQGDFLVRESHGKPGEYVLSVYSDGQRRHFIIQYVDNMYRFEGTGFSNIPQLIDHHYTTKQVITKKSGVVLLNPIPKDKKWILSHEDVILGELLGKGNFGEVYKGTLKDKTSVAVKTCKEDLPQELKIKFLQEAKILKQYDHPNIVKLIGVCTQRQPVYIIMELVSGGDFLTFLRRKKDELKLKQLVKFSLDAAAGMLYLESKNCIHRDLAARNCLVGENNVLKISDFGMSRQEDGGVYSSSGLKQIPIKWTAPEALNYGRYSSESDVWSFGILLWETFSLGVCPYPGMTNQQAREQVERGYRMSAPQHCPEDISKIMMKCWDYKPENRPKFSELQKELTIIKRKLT

O=C(Nc1cccc([C@@H]2CN(c3ncnc4[nH]ccc34)CCN2CCO)c1)Nc1c(F)cccc1N1CCCC1
inhibition [1]: 82% | inhibition [2]: 45% | inhibition [3]: 77% | inhibition [4]: 100% | inhibition [5]: 82% | inhibition [6]: 94% | inhibition [7]: 100% | inhibition [8]: 65% | inhibition [9]: 96% | inhibition [10]: 81% | inhibition [11]: 64% | inhibition [12]: 20% | inhibition [13]: 73% | inhibition [14]: 74%

O=C(Nc1cccc([C@H]2CCCN(c3ncnc4[nH]ccc34)C2)c1)Nc1ccccc1N1CCCC1
inhibition [15]: 50% | inhibition [16]: 100% | inhibition [17]: 81% | inhibition [18]: 23% | inhibition [19]: 0.2% | inhibition [20]: 83% | inhibition [21]: 58% | inhibition [22]: 31% | inhibition [23]: 71% | inhibition [24]: 94% | inhibition [25]: 62% | inhibition [26]: 100% | inhibition [27]: 99%
